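Each compound was tested at five concentrations against cells in 96-well plates for 48 hours. The concentration for 50% growth inhibition is given as GI50.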 Calls of active or inactive are those of the source. No stated cut-off is given here; in the data, active = GI50 up to about 1.1 µM and inactive = higher.
What was measured:
Test in all cases: NCI-60 cell line screen, 48 h
DU-145 = system: DU-145
CCRF-CEM = system: CCRF-CEM
UACC-257 = system: UACC-257
OVCAR-4 = system: OVCAR-4
UACC-62 = system: UACC-62
NCI-H23 = system: NCI-H23
PC-3 = system: PC-3
EKVX = system: EKVX
OVCAR-8 = system: OVCAR-8
OVCAR-3 = system: OVCAR-3
SW-620 = system: SW-620
HOP-62 = system: HOP-62
BT-549 = system: BT-549
SK-OV-3 = system: SK-OV-3
SNB-19 = system: SNB-19
IGROV-1 = system: IGROV-1
RPMI-8226 = system: RPMI-8226
786-0 = system: 786-0
HCT-15 = system: HCT-15
CAKI-1 = system: CAKI-1
RXF 393 = system: RXF 393
SR = system: SR
NCI-H460 = system: NCI-H460
SN12C = system: SN12C
A498 = system: A498
NCI-H226 = system: NCI-H226
U-251 = system: U-251
SK-MEL-5 = system: SK-MEL-5
HCT-116 = system: HCT-116
MOLT-4 = system: MOLT-4
ACHN = system: ACHN
HL-60 = system: HL-60
HCC 2998 = system: HCC 2998
SF-295 = system: SF-295
LOX IMVI = system: LOX IMVI
HT-29 = system: HT-29
COLO 205 = system: COLO 205
KM12 = system: KM12
MCF7 = system: MCF7
T47D = system: T47D
Malme-3M = system: Malme-3M
SK-MEL-2 = system: SK-MEL-2
MDA-MB-231 = system: MDA-MB-231
K562 = system: K562
SNB-75 = system: SNB-75
HOP-92 = system: HOP-92
NCI/ADR-RES = system: NCI/ADR-RES
SF-268 = system: SF-268
UO-31 = system: UO-31
SK-MEL-28 = system: SK-MEL-28
Hs-578T = system: Hs-578T
MDA-MB-435 = system: MDA-MB-435
MDA-N = system: MDA-N
NCI-H522 = system: NCI-H522
SF-539 = system: SF-539
A549 = system: A549
OVCAR-5 = system: OVCAR-5
M14 = system: M14
TK-10 = system: TK-10

N=C(N)NS(=O)(=O)c1ccc(NNc2c3ccccc3nc3c(C(=O)Nc4ccc(S(N)(=O)=O)cc4)cccc23)cc1
GI50 (DU-145): 94 µM (inactive) | GI50 (CCRF-CEM): 8.24 µM (inactive) | GI50 (UACC-257): > 100 µM (inactive) | GI50 (OVCAR-4): 51.2 µM (inactive) | GI50 (UACC-62): 18.7 µM (inactive) | GI50 (NCI-H23): 51.1 µM (inactive) | GI50 (PC-3): 36.1 µM (inactive) | GI50 (EKVX): 80.2 µM (inactive) | GI50 (OVCAR-8): 36.1 µM (inactive) | GI50 (OVCAR-3): 22.9 µM (inactive) | GI50 (SW-620): 22.1 µM (inactive) | GI50 (HOP-62): 53.7 µM (inactive) | GI50 (BT-549): 19.5 µM (inactive) | GI50 (SK-OV-3): > 100 µM (inactive) | GI50 (SNB-19): 22.9 µM (inactive) | GI50 (IGROV-1): 28.8 µM (inactive) | GI50 (RPMI-8226): 17.8 µM (inactive) | GI50 (786-0): 21.7 µM (inactive) | GI50 (HCT-15): > 100 µM | GI50 (CAKI-1): > 100 µM (inactive) | GI50 (RXF 393): 40.6 µM (inactive) | GI50 (SR): 5.37 µM (inactive) | GI50 (NCI-H460): 19.7 µM (inactive) | GI50 (SN12C): 43.8 µM (inactive) | GI50 (A498): > 100 µM (inactive) | GI50 (NCI-H226): 92 µM (inactive) | GI50 (U-251): 7.59 µM (inactive) | GI50 (SK-MEL-5): 27.3 µM (inactive) | GI50 (HCT-116): 28.9 µM (inactive) | GI50 (MOLT-4): 5.75 µM (inactive) | GI50 (ACHN): 52.7 µM (inactive) | GI50 (HL-60): 23.9 µM (inactive) | GI50 (HCC 2998): 19.5 µM (inactive) | GI50 (SF-295): 48.2 µM (inactive) | GI50 (LOX IMVI): 10.4 µM (inactive) | GI50 (HT-29): 23.4 µM (inactive) | GI50 (COLO 205): 31 µM (inactive) | GI50 (KM12): 30.8 µM (inactive) | GI50 (MCF7): 8.47 µM (inactive) | GI50 (T47D): 4.49 µM (inactive) | GI50 (Malme-3M): 20.6 µM (inactive) | GI50 (SK-MEL-2): 9.02 µM (inactive) | GI50 (MDA-MB-231): 27.9 µM (inactive) | GI50 (K562): 19.9 µM (inactive) | GI50 (SNB-75): 26.4 µM (inactive) | GI50 (HOP-92): 15.1 µM (inactive) | GI50 (NCI/ADR-RES): > 100 µM (inactive) | GI50 (SF-268): 16.8 µM (inactive) | GI50 (UO-31): > 100 µM (inactive) | GI50 (SK-MEL-28): 68.1 µM (inactive) | GI50 (Hs-578T): 18.4 µM (inactive) | GI50 (MDA-MB-435): 72.8 µM (inactive) | GI50 (MDA-N): 76.6 µM (inactive) | GI50 (NCI-H522): 14.7 µM (inactive) | GI50 (SF-539): 26.6 µM (inactive) | GI50 (A549): > 100 µM (inactive) | GI50 (OVCAR-5): 76 µM (inactive) | GI50 (M14): 83.4 µM (inactive) | GI50 (TK-10): > 100 µM (inactive)

COC(=O)C1=C(OC(=O)/C(=C/c2ccccc2)c2ccc(Cl)cc2Cl)C(C(=O)OC)[C@@]2(O)[C@@H](C(=O)OC)[C@H](C)C[C@@H]1[C@@H]2C(=O)OC (some centres not stated)
GI50 (DU-145): > 100 µM (inactive) | GI50 (CCRF-CEM): > 100 µM (inactive) | GI50 (UACC-257): > 100 µM (inactive) | GI50 (OVCAR-4): > 100 µM (inactive) | GI50 (UACC-62): > 100 µM (inactive) | GI50 (NCI-H23): > 100 µM (inactive) | GI50 (PC-3): > 100 µM (inactive) | GI50 (EKVX): > 100 µM (inactive) | GI50 (OVCAR-8): > 100 µM (inactive) | GI50 (OVCAR-3): > 100 µM (inactive) | GI50 (SW-620): > 100 µM (inactive) | GI50 (HOP-62): > 100 µM (inactive) | GI50 (BT-549): > 100 µM (inactive) | GI50 (SK-OV-3): > 100 µM (inactive) | GI50 (SNB-19): > 100 µM (inactive) | GI50 (IGROV-1): > 100 µM (inactive) | GI50 (RPMI-8226): > 100 µM (inactive) | GI50 (786-0): > 100 µM (inactive) | GI50 (HCT-15): > 100 µM | GI50 (CAKI-1): > 100 µM (inactive) | GI50 (RXF 393): > 100 µM (inactive) | GI50 (SR): > 100 µM (inactive) | GI50 (NCI-H460): > 100 µM (inactive) | GI50 (SN12C): > 100 µM (inactive) | GI50 (A498): > 100 µM (inactive) | GI50 (NCI-H226): > 100 µM (inactive) | GI50 (U-251): > 100 µM (inactive) | GI50 (SK-MEL-5): 82.8 µM (inactive) | GI50 (HCT-116): > 100 µM (inactive) | GI50 (MOLT-4): > 100 µM (inactive) | GI50 (ACHN): 42 µM (inactive) | GI50 (HL-60): > 100 µM (inactive) | GI50 (HCC 2998): > 100 µM (inactive) | GI50 (SF-295): > 100 µM (inactive) | GI50 (LOX IMVI): > 100 µM (inactive) | GI50 (HT-29): > 100 µM (inactive) | GI50 (COLO 205): > 100 µM (inactive) | GI50 (KM12): > 100 µM (inactive) | GI50 (MCF7): > 100 µM (inactive) | GI50 (T47D): > 100 µM (inactive) | GI50 (Malme-3M): > 100 µM (inactive) | GI50 (SK-MEL-2): > 100 µM (inactive) | GI50 (MDA-MB-231): > 100 µM (inactive) | GI50 (K562): > 100 µM (inactive) | GI50 (SNB-75): 75.9 µM (inactive) | GI50 (HOP-92): > 100 µM (inactive) | GI50 (NCI/ADR-RES): > 100 µM (inactive) | GI50 (SF-268): > 100 µM (inactive) | GI50 (UO-31): > 100 µM (inactive) | GI50 (SK-MEL-28): > 100 µM (inactive) | GI50 (Hs-578T): > 100 µM (inactive) | GI50 (MDA-MB-435): > 100 µM (inactive) | GI50 (MDA-N): > 100 µM (inactive) | GI50 (NCI-H522): > 100 µM (inactive) | GI50 (SF-539): > 100 µM (inactive) | GI50 (A549): > 100 µM (inactive) | GI50 (OVCAR-5): > 100 µM (inactive) | GI50 (M14): > 100 µM (inactive) | GI50 (TK-10): > 100 µM (inactive)

N#Cc1ccc(C(=O)/C=C/c2ccc(O)c(O)c2)cc1
GI50 (DU-145): 16.3 µM (inactive) | GI50 (CCRF-CEM): 1.4 µM (inactive) | GI50 (UACC-257): 16.2 µM (inactive) | GI50 (OVCAR-4): 12.4 µM (inactive) | GI50 (UACC-62): 17.1 µM (inactive) | GI50 (NCI-H23): 16.9 µM (inactive) | GI50 (PC-3): 15.3 µM (inactive) | GI50 (EKVX): 17.2 µM (inactive) | GI50 (OVCAR-8): > 40.4 µM (inactive) | GI50 (OVCAR-3): 15.8 µM (inactive) | GI50 (SW-620): 13.2 µM (inactive) | GI50 (HOP-62): 17.9 µM (inactive) | GI50 (BT-549): 12.6 µM (inactive) | GI50 (SK-OV-3): 21.9 µM (inactive) | GI50 (SNB-19): 15.8 µM (inactive) | GI50 (IGROV-1): 12.8 µM (inactive) | GI50 (RPMI-8226): 3.1 µM (inactive) | GI50 (786-0): > 38.4 µM (inactive) | GI50 (HCT-15): 15.5 µM | GI50 (CAKI-1): 15.3 µM (inactive) | GI50 (RXF 393): 16.8 µM (inactive) | GI50 (SR): 1.57 µM (inactive) | GI50 (NCI-H460): 16.1 µM (inactive) | GI50 (SN12C): 15.5 µM (inactive) | GI50 (A498): 17.7 µM (inactive) | GI50 (NCI-H226): 20.2 µM (inactive) | GI50 (U-251): 13.4 µM (inactive) | GI50 (SK-MEL-5): 15.2 µM (inactive) | GI50 (HCT-116): 10.5 µM (inactive) | GI50 (MOLT-4): 8.38 µM (inactive) | GI50 (ACHN): 17.3 µM (inactive) | GI50 (HL-60): 2.5 µM (inactive) | GI50 (HCC 2998): 14.8 µM (inactive) | GI50 (SF-295): 17.7 µM (inactive) | GI50 (LOX IMVI): 11.5 µM (inactive) | GI50 (HT-29): 16.4 µM (inactive) | GI50 (COLO 205): 16.7 µM (inactive) | GI50 (KM12): 13.9 µM (inactive) | GI50 (MCF7): 13 µM (inactive) | GI50 (T47D): 16.3 µM (inactive) | GI50 (Malme-3M): 15.7 µM (inactive) | GI50 (SK-MEL-2): 17.3 µM (inactive) | GI50 (MDA-MB-231): 15.6 µM (inactive) | GI50 (K562): 7.1 µM (inactive) | GI50 (SNB-75): 17.4 µM (inactive) | GI50 (HOP-92): 15.5 µM (inactive) | GI50 (NCI/ADR-RES): > 43 µM (inactive) | GI50 (SF-268): 14.1 µM (inactive) | GI50 (UO-31): 12.4 µM (inactive) | GI50 (SK-MEL-28): 15.5 µM (inactive) | GI50 (Hs-578T): 24.4 µM (inactive) | GI50 (MDA-MB-435): 14.4 µM (inactive) | GI50 (MDA-N): 14.9 µM (inactive) | GI50 (NCI-H522): 1.53 µM (inactive) | GI50 (SF-539): 15.6 µM (inactive) | GI50 (A549): 15.3 µM (inactive) | GI50 (OVCAR-5): 17.7 µM (inactive) | GI50 (M14): 18.2 µM (inactive) | GI50 (TK-10): 14.1 µM (inactive)

— ChEMBL document CHEMBL1201862, “PubChem BioAssay data set” (2004)
